ChEMBL document CHEMBL3813616, “Discovery of novel 7-azaindoles as PDK1 inhibitors” (Bioorg Med Chem Lett, 2016)

How the values were obtained:
[1] = target: Ribosomal protein S6 kinase beta-1 (Homo sapiens) (UniProt P23443); assay: Inhibition of human S6K1 (1 to 421 residues) assessed as enzyme activity at 1 uM using 33P ATP by radioactive filter binding assay; parameters: scale not given: the % may be the effect or the level left
[2] = target: Serine/threonine-protein kinase 26 (Homo sapiens) (UniProt Q9P289); assay: Inhibition of human MST4 (1 to 416 residues) assessed as enzyme activity at 1 uM using 33P ATP by radioactive filter binding assay; parameters: scale not given: the % may be the effect or the level left
Serine/threonine-protein kinase 26 (Homo sapiens), sequence (Q9P289 2-416 limits assumed): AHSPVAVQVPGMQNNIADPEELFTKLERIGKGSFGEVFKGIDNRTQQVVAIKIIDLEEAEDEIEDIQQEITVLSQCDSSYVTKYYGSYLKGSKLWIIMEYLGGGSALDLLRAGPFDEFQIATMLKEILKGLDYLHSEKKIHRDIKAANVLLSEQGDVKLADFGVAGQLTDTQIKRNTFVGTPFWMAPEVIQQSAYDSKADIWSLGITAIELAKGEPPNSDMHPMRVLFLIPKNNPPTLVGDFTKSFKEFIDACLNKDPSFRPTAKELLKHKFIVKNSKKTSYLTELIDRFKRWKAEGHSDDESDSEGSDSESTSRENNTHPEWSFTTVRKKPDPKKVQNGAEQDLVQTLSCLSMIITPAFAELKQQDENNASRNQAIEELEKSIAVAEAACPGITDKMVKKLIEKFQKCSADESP

[3] = target: Insulin receptor (Homo sapiens) (UniProt P06213); assay: Inhibition of human IR (1001 to 1382 residues) assessed as enzyme activity at 1 uM using 33P ATP by radioactive filter binding assay; parameters: scale not given: the % may be the effect or the level left
Insulin receptor (Homo sapiens), sequence (P06213 28-758 limits assumed): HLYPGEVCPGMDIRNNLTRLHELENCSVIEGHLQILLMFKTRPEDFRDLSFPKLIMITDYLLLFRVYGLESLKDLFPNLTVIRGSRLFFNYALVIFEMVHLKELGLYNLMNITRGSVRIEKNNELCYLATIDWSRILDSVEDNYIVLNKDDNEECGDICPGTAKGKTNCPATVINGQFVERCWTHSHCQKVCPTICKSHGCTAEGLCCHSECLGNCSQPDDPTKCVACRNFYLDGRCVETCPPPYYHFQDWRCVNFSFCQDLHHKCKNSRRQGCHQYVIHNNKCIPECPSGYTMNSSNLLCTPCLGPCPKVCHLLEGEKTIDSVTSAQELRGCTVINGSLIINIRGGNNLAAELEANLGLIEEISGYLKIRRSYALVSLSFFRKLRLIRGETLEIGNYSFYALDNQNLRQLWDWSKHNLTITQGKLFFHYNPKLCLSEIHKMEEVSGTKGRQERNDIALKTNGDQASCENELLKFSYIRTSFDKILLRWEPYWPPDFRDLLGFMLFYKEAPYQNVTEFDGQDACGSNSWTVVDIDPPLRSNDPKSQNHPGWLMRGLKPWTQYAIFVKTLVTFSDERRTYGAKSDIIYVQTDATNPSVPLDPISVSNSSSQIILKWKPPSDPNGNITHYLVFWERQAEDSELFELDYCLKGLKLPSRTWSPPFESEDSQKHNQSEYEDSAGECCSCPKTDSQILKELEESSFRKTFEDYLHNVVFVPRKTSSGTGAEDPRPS
Insulin receptor (Homo sapiens), sequence (P06213 763-1382 limits assumed): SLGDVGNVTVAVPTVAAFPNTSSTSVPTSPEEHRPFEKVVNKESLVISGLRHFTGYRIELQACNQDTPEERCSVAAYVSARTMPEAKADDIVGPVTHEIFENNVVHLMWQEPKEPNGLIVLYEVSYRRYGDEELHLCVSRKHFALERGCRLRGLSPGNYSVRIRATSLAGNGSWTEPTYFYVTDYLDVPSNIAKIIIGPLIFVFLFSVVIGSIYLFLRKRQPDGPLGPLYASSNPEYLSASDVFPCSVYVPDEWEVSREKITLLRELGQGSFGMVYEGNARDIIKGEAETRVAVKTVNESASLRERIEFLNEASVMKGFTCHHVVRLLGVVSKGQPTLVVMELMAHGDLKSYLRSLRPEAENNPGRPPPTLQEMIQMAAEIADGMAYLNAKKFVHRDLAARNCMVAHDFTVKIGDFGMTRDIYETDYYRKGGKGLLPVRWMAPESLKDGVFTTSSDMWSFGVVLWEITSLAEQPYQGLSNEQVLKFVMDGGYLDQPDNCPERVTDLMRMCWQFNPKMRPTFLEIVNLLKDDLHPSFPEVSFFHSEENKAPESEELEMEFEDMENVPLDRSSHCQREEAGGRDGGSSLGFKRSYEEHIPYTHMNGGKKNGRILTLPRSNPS

[4] = target: Mitogen-activated protein kinase 14 (Homo sapiens) (UniProt Q16539); assay: Inhibition of SAPK2a (unknown origin) assessed as enzyme activity at 1 uM using 33P ATP by radioactive filter binding assay; parameters: scale not given: the % may be the effect or the level left
Mitogen-activated protein kinase 14 (Homo sapiens), sequence (Q16539 whole entry, the tested form may be a part): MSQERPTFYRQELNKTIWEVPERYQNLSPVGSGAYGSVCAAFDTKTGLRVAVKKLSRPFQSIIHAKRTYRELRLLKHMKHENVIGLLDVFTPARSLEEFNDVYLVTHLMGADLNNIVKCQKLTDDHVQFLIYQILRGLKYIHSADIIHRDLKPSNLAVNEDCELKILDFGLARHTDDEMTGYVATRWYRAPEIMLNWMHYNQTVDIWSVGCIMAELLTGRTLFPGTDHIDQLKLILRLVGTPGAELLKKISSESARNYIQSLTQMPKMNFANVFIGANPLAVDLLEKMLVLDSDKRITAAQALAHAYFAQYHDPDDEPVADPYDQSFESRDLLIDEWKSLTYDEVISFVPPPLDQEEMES

[5] = target: Protein kinase C alpha type (Homo sapiens) (UniProt P17252); assay: Inhibition of human PKCalpha (1 to 672 residues) assessed as enzyme activity at 1 uM using 33P ATP by radioactive filter binding assay; parameters: scale not given: the % may be the effect or the level left
[6] = target: Homeodomain-interacting protein kinase 2 (Homo sapiens) (UniProt Q9H2X6); assay: Inhibition of human HIPK2 (165 to 564 residues) assessed as enzyme activity at 1 uM using 33P ATP by radioactive filter binding assay; parameters: scale not given: the % may be the effect or the level left
Homeodomain-interacting protein kinase 2 (Homo sapiens), sequence (Q9H2X6 whole entry, looked up, the tested form may be a part, canonical isoform): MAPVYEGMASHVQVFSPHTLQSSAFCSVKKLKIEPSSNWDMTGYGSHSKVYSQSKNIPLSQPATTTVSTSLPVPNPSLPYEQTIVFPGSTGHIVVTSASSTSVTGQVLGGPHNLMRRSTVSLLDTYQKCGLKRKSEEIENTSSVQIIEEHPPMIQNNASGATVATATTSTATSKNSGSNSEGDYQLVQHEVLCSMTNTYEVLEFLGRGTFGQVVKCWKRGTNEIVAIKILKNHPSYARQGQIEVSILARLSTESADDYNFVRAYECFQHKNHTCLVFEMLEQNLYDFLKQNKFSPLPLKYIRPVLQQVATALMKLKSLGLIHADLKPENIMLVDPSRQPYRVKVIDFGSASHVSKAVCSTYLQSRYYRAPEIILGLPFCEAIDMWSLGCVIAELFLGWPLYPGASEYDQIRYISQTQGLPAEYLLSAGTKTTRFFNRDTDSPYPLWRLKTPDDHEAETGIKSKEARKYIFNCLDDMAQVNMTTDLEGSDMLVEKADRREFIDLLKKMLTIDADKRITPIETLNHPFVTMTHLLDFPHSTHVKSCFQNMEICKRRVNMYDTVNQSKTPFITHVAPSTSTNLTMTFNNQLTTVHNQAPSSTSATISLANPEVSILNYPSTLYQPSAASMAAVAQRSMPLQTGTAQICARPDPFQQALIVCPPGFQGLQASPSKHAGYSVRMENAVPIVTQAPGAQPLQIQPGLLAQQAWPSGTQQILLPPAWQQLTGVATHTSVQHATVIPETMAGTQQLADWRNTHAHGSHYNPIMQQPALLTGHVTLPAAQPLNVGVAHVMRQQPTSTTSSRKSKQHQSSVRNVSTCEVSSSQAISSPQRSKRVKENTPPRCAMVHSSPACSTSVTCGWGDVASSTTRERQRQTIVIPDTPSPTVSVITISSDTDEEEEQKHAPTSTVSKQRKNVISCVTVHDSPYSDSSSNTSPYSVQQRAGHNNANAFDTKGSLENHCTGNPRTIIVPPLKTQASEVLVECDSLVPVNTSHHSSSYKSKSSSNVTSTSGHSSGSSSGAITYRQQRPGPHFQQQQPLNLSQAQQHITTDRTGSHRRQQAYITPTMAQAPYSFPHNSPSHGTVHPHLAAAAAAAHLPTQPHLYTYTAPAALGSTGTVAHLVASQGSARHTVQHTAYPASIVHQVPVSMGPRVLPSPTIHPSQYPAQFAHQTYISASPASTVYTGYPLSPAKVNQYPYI

[7] = target: Casein kinase I isoform delta (Homo sapiens) (UniProt P48730); assay: Inhibition of human CK1 delta (1 to 415 residues) assessed as enzyme activity at 1 uM using 33P ATP by radioactive filter binding assay; parameters: scale not given: the % may be the effect or the level left
[8] = target: Serine/threonine-protein kinase PAK 6 (Homo sapiens) (UniProt Q9NQU5); assay: Inhibition of human PAK6 (2 to 681 residues) assessed as enzyme activity at 1 uM using 33P ATP by radioactive filter binding assay; parameters: scale not given: the % may be the effect or the level left
[9] = target: T1, Mitogen-activated protein kinase 13 (Homo sapiens) (UniProt O15264); assay: Inhibition of SAPK4 (unknown origin) assessed as enzyme activity at 1 uM using 33P ATP by radioactive filter binding assay; parameters: scale not given: the % may be the effect or the level left
T1 sequence (whole entry): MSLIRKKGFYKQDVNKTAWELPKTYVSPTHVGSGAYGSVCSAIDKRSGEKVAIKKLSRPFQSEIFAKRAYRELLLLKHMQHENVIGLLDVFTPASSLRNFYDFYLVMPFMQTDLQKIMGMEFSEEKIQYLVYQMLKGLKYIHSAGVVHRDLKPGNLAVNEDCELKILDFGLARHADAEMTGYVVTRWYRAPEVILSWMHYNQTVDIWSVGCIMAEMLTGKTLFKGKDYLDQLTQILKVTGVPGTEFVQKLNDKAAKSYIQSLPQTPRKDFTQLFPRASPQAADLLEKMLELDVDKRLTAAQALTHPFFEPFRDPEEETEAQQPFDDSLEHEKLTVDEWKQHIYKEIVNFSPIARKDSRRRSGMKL

[10] = target: T2, Serine/threonine-protein kinase D1 (Homo sapiens) (UniProt Q15139); assay: Inhibition of human PKD1 (2 to 912 residues) assessed as enzyme activity at 1 uM using 33P ATP by radioactive filter binding assay; parameters: scale not given: the % may be the effect or the level left
T2 sequence (whole entry): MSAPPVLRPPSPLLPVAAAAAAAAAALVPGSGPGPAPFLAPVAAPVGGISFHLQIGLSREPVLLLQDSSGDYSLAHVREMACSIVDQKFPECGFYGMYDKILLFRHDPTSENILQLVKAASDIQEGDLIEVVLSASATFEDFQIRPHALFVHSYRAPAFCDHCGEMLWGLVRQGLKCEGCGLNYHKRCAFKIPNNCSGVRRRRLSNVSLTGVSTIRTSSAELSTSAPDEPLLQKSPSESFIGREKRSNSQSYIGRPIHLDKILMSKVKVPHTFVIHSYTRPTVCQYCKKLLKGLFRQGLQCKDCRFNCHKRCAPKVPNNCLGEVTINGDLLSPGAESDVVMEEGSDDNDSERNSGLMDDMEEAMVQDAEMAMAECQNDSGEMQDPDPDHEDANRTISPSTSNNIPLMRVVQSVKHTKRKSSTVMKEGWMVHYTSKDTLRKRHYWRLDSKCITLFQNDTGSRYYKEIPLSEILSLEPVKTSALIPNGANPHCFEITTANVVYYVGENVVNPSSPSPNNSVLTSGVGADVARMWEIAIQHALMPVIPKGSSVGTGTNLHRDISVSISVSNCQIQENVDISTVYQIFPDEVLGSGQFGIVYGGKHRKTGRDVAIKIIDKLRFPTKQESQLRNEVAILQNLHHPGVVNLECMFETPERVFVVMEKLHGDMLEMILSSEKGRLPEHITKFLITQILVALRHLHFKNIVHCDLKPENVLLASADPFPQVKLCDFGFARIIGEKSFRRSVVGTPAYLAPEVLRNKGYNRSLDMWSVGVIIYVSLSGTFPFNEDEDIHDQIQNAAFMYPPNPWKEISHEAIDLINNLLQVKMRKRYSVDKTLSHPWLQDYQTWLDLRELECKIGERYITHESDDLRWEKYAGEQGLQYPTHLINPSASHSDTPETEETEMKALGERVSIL

[11] = target: T3, 3-phosphoinositide-dependent protein kinase 1 (Homo sapiens, UniProt O15530); assay: Inhibition of human His6-tagged PDK1 using biotinylated PDKtide as substrate after 60 mins by topcount method
T3 sequence (O15530 whole entry): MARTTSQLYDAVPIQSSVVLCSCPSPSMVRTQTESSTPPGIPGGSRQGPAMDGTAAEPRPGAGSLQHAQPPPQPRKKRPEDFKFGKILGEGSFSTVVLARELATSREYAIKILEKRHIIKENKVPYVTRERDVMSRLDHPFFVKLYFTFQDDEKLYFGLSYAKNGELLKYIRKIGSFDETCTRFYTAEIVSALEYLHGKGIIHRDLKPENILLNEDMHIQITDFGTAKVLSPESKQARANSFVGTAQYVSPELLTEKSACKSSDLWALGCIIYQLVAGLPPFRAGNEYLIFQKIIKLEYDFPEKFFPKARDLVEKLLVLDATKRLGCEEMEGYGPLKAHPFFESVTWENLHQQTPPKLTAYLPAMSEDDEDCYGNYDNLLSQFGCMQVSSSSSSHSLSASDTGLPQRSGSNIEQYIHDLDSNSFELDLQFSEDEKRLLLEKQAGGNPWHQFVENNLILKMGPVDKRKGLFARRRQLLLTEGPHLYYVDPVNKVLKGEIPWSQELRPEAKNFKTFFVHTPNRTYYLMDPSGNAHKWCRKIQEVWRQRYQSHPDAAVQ

[12] = target: Mitogen-activated protein kinase 11 (Homo sapiens) (UniProt Q15759); assay: Inhibition of SAPK2b (unknown origin) assessed as enzyme activity at 1 uM using 33P ATP by radioactive filter binding assay; parameters: scale not given: the % may be the effect or the level left
Mitogen-activated protein kinase 11 (Homo sapiens), sequence (Q15759 whole entry): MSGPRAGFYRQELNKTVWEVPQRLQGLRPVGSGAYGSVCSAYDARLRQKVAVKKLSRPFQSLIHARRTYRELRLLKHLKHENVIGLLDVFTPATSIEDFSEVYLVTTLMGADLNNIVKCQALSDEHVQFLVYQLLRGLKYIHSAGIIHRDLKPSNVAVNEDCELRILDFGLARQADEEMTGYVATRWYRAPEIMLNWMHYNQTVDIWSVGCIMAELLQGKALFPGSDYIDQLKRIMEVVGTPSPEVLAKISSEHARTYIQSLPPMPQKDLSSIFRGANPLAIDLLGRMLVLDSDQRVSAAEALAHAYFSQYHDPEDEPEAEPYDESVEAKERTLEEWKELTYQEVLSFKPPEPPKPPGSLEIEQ

[13] = target: Casein kinase II (Homo sapiens) (UniProt P67870+P68400+P19784); assay: Inhibition of human CK2 assessed as enzyme activity at 1 uM using 33P ATP by radioactive filter binding assay; format: protein-complex assay; parameters: scale not given: the % may be the effect or the level left

Ribosomal protein S6 kinase beta-1 (Homo sapiens), sequence (P23443 whole entry, looked up, the tested form may be a part): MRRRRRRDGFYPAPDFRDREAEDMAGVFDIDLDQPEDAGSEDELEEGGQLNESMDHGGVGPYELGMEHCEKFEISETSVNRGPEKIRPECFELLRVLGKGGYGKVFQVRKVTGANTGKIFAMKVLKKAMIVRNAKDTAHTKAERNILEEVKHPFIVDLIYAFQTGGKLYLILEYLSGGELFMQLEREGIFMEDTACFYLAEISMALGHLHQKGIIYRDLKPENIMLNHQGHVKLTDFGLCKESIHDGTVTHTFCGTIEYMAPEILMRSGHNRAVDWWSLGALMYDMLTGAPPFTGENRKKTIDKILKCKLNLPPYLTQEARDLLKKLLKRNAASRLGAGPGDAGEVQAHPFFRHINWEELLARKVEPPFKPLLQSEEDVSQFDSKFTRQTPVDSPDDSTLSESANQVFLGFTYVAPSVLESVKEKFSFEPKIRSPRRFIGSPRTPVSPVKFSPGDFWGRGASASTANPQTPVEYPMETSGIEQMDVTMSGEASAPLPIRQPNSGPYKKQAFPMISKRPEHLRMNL

Structure (SMILES) | Activity [1] [%] | Activity [2] [%] | Activity [3] [%] | Activity [4] [%] | Activity [5] [%] | Activity [6] [%] | Activity [7] [%] | Activity [8] [%] | Activity [9] [%] | Activity [10] [%] | IC50 [11] [nM] | Activity [12] [%] | Activity [13] [%]
CCc1cc(-c2c[nH]c3ncc(-c4cnn(C5CCNCC5)c4)cc23)nc(N)n1 | -66 | -49 | -8 | -16 | -73 | -99 | -67 | -5 | -22 | -96 | 58 | -18 | -10
CCCCc1cc(-c2c[nH]c3ncc(-c4cnn(C5CCNCC5)c4)cc23)nc(N)n1 | -84 | -40 | -28 | -22 | -55 | -92 | -72 | -50 | -34 | -98 | 84 | -21 | 0
CCCCc1cc(-c2c[nH]c3ncccc23)nc(N)n1 | -77 | -4 |  | -10 | -18 | -67 | -26 | 3 | -37 | -53 | 1100 | -5 | 14
Nc1nccc(-c2c[nH]c3ncccc23)n1 [MERIOLIN 1] | -71 | -9 | -6 | -5 | -28 | -79 | -74 | -27 | -27 | -41 | 5900 | -4 | -22
